The results in this text go back to ChEMBL document CHEMBL1126499, “Inhibition of 2,3-oxidosqualene cyclase by N-alkylpiperidines” (Bioorg Med Chem Lett, 1993).

One test has as its system HepG2. Briefly: Inhibitory concentration against cholesterol biosynthesis in HepG2 cells. As to conditions: Homo sapiens; call rule not given here.
The next test deals with T1, Lanosterol synthase (Rattus norvegicus, UniProt P48450).
T1 sequence (P48450 whole entry): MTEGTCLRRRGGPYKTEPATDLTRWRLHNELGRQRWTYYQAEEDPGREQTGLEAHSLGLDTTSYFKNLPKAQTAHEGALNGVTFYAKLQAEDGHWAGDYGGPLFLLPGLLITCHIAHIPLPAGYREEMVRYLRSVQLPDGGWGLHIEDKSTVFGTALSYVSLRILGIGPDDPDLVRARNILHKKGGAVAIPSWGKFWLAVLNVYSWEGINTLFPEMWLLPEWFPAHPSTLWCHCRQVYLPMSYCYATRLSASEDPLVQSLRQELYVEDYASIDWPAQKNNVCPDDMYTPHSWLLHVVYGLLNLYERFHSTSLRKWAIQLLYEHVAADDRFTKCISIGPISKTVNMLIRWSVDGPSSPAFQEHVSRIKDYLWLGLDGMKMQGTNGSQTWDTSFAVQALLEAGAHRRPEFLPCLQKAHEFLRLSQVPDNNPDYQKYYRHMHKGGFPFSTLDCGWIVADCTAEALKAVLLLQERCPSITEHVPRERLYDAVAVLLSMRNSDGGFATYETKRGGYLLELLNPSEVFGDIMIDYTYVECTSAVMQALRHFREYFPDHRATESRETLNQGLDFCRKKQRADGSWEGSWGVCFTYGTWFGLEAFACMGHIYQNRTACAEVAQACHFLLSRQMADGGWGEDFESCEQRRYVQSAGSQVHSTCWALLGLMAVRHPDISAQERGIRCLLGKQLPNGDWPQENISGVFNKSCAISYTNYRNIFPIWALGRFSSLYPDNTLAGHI
Briefly: Inhibitory concentration against purified rat liver Oxidosqualene cyclase (OSC); NI means no inhibition.

Turning to `CCCCCCCCCCCCN1CCC(C(C)CO)CC1` (stereo not given), the concentration for half-maximal inhibition (IC50) (commonly the concentration at which inhibition is half-maximal) with HepG2 came out at 40 nM.

Consider `C[C@@H]1[C@@H](O)CC[C@]2(C)CN(Cc3ccccc3)CC[C@@H]12`, for which, on Lanosterol synthase, the concentration for half-maximal inhibition (IC50) entry was “Not Active”.

Regarding `CCCCCCCCCCCCC(=O)N1CCC(C(C)CO)CC1` (stereo not given), the IC50 in the test on HepG2 came to 12 nM.

Take `CC(C)CCCC(C)CCCC(C)N1CCCCC1` (stereo not given): 30000 nM corresponded to half-maximal inhibition in the test on HepG2 (IC50).

Take `CCCCCCCCCCCC(=O)N1CC[C@H]2[C@H](C)[C@@H](O)CC[C@]2(C)C1`: 0.7 nM corresponded to half-maximal inhibition with HepG2 (IC50).
